Laboratory results from ChEMBL document CHEMBL1140953, “Anthracene based compounds as new L-type Ca2+ channel blockers: design, synthesis, and full biological profile” (J Med Chem, 2009).
The source made the active and inactive calls. The calls are words filed in the database; no cut-off is given here.

Legend:
[1] = species on record: Rattus norvegicus; assay: Vasorelaxant activity in Sprague-Dawley rat caudal artery ring assessed as reduction of phenylephrine-induced muscle contractions at 50 uM in Ca2+-free physiological salt solution; assay type: functional, tissue-based
[2] = species on record: Rattus norvegicus; assay: Vasorelaxant activity in Sprague-Dawley rat caudal artery ring assessed as reduction of caffeine-induced muscle contractions at 50 uM; assay type: functional, tissue-based
[3] = target: T1, Voltage-gated L-type calcium channel (Rattus norvegicus, UniProt P22002+Q02485+P27732); assay: Inhibition of L-type calcium channel in Sprague-Dawley rat caudal artery smooth muscle cells at 15 uM by whole cell patch clamp method at 2 Hz
[4] = species on record: Rattus norvegicus; assay: Vasorelaxant activity in Sprague-Dawley rat caudal artery ring assessed as reduction of caffeine-induced muscle contractions at 50 uM in Ca2+-free physiological salt solution; assay type: functional, tissue-based
[5] = target: T1, Voltage-gated L-type calcium channel; assay: Inhibition of L-type calcium channel in Sprague-Dawley rat caudal artery smooth muscle cells assessed as inhibition of peak inward current at 15 uM by whole cell patch clamp method at -20 to 40 mV voltage
[6] = target: T1, Voltage-gated L-type calcium channel; assay: Inhibition of L-type calcium channel in Sprague-Dawley rat caudal artery smooth muscle cells by whole cell patch clamp method
[7] = Displacement of (+)-[3H]isradipine from L-type calcium channel in rabbit skeletal muscle cells; parameters: species or system Oryctolagus cuniculus
[8] = (§1) Displacement of (-)-[3H]devapamil from L-type calcium channel in rabbit skeletal muscle cells; parameters: species or system Oryctolagus cuniculus
[9] = target: T1, Voltage-gated L-type calcium channel; assay: Inhibition of L-type calcium channel in Sprague-Dawley rat caudal artery smooth muscle cells at 15 uM by whole cell patch clamp method at -50 mV voltage
[10] = Vasorelaxant activity in Sprague-Dawley rat caudal artery ring assessed as reduction of KCl-induced muscle contractions at 50 uM relative to control; assay type: functional; parameters: scale not given: the % may be the effect or the level left
[11] = target: Voltage-dependent L-type calcium channel subunit alpha-1C (Mus musculus, UniProt Q01815); assay: Inhibition of mouse brain L-type Cav1.2 channel by radioligand binding assay
Chain of Voltage-dependent L-type calcium channel subunit alpha-1C (Q01815 whole entry): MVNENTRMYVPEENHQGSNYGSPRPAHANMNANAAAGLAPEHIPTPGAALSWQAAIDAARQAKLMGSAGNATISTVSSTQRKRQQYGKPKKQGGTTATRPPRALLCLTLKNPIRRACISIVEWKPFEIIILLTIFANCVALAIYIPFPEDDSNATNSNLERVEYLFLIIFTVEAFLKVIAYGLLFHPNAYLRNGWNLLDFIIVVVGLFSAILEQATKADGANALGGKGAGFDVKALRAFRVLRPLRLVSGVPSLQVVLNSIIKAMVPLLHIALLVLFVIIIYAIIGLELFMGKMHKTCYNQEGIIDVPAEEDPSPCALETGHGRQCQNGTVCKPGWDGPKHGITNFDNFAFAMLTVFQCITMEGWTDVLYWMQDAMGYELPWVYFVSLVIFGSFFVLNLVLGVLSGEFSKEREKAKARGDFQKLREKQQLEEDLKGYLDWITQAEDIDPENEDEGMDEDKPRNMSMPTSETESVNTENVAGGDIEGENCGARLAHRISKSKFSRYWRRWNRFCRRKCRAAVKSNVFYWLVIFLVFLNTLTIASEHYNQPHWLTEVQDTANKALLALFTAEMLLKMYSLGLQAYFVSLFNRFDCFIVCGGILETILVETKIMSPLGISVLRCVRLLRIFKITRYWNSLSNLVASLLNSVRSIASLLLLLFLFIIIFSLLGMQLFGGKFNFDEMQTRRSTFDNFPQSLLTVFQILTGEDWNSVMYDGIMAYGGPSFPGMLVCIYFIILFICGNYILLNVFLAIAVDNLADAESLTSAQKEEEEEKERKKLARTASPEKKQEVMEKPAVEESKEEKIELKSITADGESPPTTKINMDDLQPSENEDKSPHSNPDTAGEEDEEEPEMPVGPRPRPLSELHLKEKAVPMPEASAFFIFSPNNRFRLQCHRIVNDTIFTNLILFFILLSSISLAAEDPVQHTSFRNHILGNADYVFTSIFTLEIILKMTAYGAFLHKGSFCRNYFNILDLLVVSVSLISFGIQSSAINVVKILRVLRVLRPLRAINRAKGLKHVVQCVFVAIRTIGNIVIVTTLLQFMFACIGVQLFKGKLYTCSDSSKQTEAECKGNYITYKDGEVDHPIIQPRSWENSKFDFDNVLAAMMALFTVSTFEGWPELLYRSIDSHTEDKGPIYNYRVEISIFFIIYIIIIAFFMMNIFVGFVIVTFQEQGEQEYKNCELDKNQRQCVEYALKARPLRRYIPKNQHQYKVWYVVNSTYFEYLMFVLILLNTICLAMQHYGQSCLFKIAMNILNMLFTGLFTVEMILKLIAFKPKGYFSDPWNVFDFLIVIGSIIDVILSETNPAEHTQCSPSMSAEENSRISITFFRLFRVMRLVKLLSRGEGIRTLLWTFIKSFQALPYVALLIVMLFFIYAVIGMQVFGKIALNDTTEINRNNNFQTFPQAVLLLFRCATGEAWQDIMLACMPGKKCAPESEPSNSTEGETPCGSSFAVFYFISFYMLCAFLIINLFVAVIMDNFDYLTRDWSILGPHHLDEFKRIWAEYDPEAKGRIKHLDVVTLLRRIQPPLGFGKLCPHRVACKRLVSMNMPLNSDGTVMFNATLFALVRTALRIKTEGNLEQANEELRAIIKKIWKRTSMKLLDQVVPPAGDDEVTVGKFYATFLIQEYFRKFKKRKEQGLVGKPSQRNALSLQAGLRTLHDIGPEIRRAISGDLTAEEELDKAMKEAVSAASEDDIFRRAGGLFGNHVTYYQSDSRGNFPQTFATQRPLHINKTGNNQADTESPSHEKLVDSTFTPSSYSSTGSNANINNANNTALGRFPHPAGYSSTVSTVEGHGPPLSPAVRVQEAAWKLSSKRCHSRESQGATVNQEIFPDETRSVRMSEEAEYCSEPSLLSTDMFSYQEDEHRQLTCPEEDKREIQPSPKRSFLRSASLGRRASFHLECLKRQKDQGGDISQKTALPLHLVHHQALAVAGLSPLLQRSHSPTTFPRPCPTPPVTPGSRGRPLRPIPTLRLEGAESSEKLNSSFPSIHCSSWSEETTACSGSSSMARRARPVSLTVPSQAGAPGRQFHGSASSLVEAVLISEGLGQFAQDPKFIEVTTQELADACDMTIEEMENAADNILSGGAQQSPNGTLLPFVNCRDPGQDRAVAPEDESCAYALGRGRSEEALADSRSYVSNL

[12] = target: T1, Voltage-gated L-type calcium channel; assay: Inhibition of L-type calcium channel in Sprague-Dawley rat caudal artery smooth muscle cells assessed as decrease in amplitude at 15 uM by whole cell patch clamp method; conditions: TDE = time-dependent effect
[13] = target: T1, Voltage-gated L-type calcium channel; assay: Inhibition of L-type calcium channel in Sprague-Dawley rat caudal artery smooth muscle cells at 15 uM by whole cell patch clamp method at 4 Hz
[14] = species on record: Oryctolagus cuniculus; assay: as §1; conditions: concentration not given here
[15] = Displacement of (-)-[3H]devapamil from L-type calcium channel in rabbit smooth skeletal cells relative to verapamil

| Structure (SMILES) | Activity [1] | Activity [2] | other results |
| --- | --- | --- | --- |
| N#CC12c3ccccc3C(c3ccccc31)C1C(=O)NC(=O)C12 (configuration not stated) | Active | Active |  |
| C#CCN1C(=O)C2C3c4ccccc4C(c4ccccc43)C2C1=O (configuration not stated) | Active | Active |  |
| O=C1NC(=O)C2C3c4ccccc4C(c4ccc(Cl)cc43)C12 (configuration not stated) | inactive |  | Activity [3]: Active; Activity [4]: inactive; Activity [5]: Active; IC50 [6]: 16.5 µM; Activity ([6]; rat): Dose-dependent effect; IC50 [7]: 6.3 µM; IC50 [8]: 5.6 µM; Activity [9]: Active; Activity [10]: 100%; IC50 [11]: 19.4 µM; Activity [12]: tde; Activity [13]: Active |
| O=C1NC(=O)C2C1C1c3ccccc3C2(CO)c2ccccc21 (configuration not stated) | Active | Active |  |
| O=C1NC(=O)C2C3c4ccccc4C(c4cccc(Cl)c43)C12 (configuration not stated) | Active | Active | Activity [10]: 90% |
| Cc1ccc2c(c1)C1c3ccccc3C2C2C(=O)NC(=O)C12 (configuration not stated) | Active | Active | Activity [10]: 90% |
| O=C1NC(=O)C2C3c4ccccc4C(c4ccccc43)C12 (configuration not stated) | Active | Active |  |
| O=C1NC(=O)C2C1C1c3ccccc3C2([N+](=O)[O-])c2ccccc21 (configuration not stated) | Active | Active |  |
| COc1ccc(CCN(C)CCCC(C#N)(c2ccc(OC)c(OC)c2)C(C)C)cc1OC (configuration not stated) [VERAPAMIL] |  |  | inhibition [14]: 100%; IC50 [15]: 60.2 nM |
| O=CC12c3ccccc3C(c3ccccc31)C1C(=O)NC(=O)C12 (configuration not stated) | Active | Active |  |
| CC12c3ccccc3C(c3ccccc31)C1C(=O)NC(=O)C12 (configuration not stated) | Active | Active |  |
| O=C1NC(=O)C2C1C1c3ccccc3C2(Cl)c2ccccc21 (configuration not stated) | Active | Active |  |
